What was measured:
[1] = Fluorescence excitation and emission spectra of camptothecin drugs free in solution and bound to liposomes; type: physicochemical; conditions: for λMAX emission, DMPG: DMPG liposomes 0.29 M; for λMAX emission, DMPG / λMAX emission, PBS / λMAX emission, DMPC: pH 7.4, 37° C.; for λMAX emission, PBS: free in PBS; for Relative Fluorescence: in PBS, pH 7.4, at excitation and emission λMAX; for λMAX excitation: pH 7.4, 2 μM drug, PBS; for λMAX emission, DMPC: DMPC liposomes 0.29 M
Source text: The camptothecin drugs are intrinsically intensely fluorescent. Fluorescence is associated with the extended conjugation of the quinoline ring system. The liposomes of Examples 1-7 were characterized for the presence of the camptothecin drugs, using excitation and emission spectrography, and fluorescence anisotropy.
Steady-state fluorescence measurements were obtained on a SLM Model 4800C. spectrofluorometer with a thermostated cuvette compartment. This instrument was interfaced with an IBM PS/2 model 55 SX computer. Excitation and emission spectra were recorded with an excitation resolution of 8 nm and an emission resolution of 4 nm. In all cases spectra were corrected for background fluorescence and scatter from unlabeled lipids or from solvents by subtraction of the spectrum of a blank. Steady-state fluorescence intensity measurements were made in the absence of polarizer. Steady-state anisotropy (a) measurements were determined with the instrument in the "T-format" for simultaneous measurement of two polarized intensities. The alignment of polarizers were checked routinely using a dilute suspension of 0.25 μm polystyrene microspheres from Polysciences, Inc, Warrington, Pa., in water; anisotropy values of >0.99 were obtained. The anisotropy was calculated from a=(Ivv -GlVH)/(Ivv +GIVH), where G-IVH /IHH and the subscripts refer to vertical and horizontal orientations of the excitation and emission polarizers, respectively.
Anisotropy measurements for camptothecin, camptothecin carboxylate sodium salt, and 10,11-methylenedioxycamptothecin were conducted using exciting light of 370 nm and 420 nm long wave pass filters on each emission channel in order to isolate the fluorescence signal from background scatter and signal. For topotecan a 400 nm excitation wavelength and a 500 nm emission filter were used and for 9-aminocamptothecin a 375 nm excitation and a wavelength 420 nm emission filter were used. For AMC and CMC, a 370 nm excitation wavelength and a 400 nm emission filter were used. For 10-hydroxycamptothecin 375 nm excitation wavelength 500 nm emission filter was used. Emission filters were obtained from Oriel Corp. Stamford, Conn. The combination of exciting light and emission filters allows one to adequately separate the fluorescence from the background signal. The contribution of background fluorescence, together with scattered light, was typically less than 1% of the total intensity. Since the lactone ring of the camptothecin drug undergoes hydrolysis in aqueous medium, all measurements were completed within the shortest possible time, less than 1 minute after mixing the drug stock solution with PBS or the liposomes. In each case, analysis was initiated immediately after mixing the drug stock solution with PBS or with the liposomes. All measurements were performed at 37° C. unless otherwise noted.
The relative fluorescence intensity of 1×10^-6 M of camptothecin free in PBS buffer at 37° C. is shown. The emission spectra of the camptothecin was recorded using exciting light of 370 nm.
An exciting light of 390 nm was used to record the emission spectra of topotecan. A decrease in the emission intensity is observed for topotecan associated with the DMPG liposome.
All spectra were recorded using camptothecin drug concentrations of 2
μM. The DMPC and DMPG concentrations were 0.29 M. Experiments were
conducted in PBS buffer at 37° C.
Also found in Table II is a relative index of the emission intensity levels from these camptothecin drugs in PBS at their respective excitation and emission λMAX.

[2] = Overall association constant by fluorescence anisotropy titration, DMPC liposomes; type: physicochemical; conditions: for overall association constant K, DMPC: DMPC (electroneutral, fluid phase), PBS, 37° C.; for bound drug level, DMPC: DMPC liposomes, 0.29M lipid, estimated; for binding affinity for liposomes (ranking): each type of liposome
Procedure: While the spectral changes provide qualitative evidence that the camptothecin drugs bind the liposome membranes, fluorescence anisotropy titration, offers the most sensitive means for quantitatively assessing the extent of the binding. The fluorescence anisotropy titration was performed according to the method of Burke and Tritton, Biochemistry 24: 1768-1776 (1985).
The concentrations of free camptothecin drugs and camptothecin drugs associated with liposomes were determined at various lipid concentrations. All experiments were conducted in glass tubes pretreated with a silating agent, Surfacil, from Pearce Chemical, Rockford, Ill. The titration was conducted at camptothecin drug concentration of 1×10^-6 M in PBS at 37° C. Anisotropy values at each lipid concentration were determined within less than 30 seconds following the addition of the camptothecin drugs to the liposome suspension. The (a) values were determined for fixed drug concentration, typically 2 μM, while the lipid concentration was varied from 0 to 0.29M. By varying the lipid concentration rather than varying the drug concentration, the problem of self-association phenomenon which occurs for camptothecin drugs concentrations in excess of 10 μM is avoided. Also, the well-known phenomenon known as inner filter effect which occurs using fluorescent material at high optical densities is a is avoided.
Adsorption isotherms like those shown in FIGS. 4A and 4B were used to determine overall association constants for the camptothecin drugs. Overall association constants are defined as: […]
where [AB ] represents the concentration of the camptothecin drug bound to the vesicle membrane, [AF ] represents the concentration of free drug, and [L] represents the total lipid concentration in the liposome suspension. This equation is valid when the concentration of free lipid is approximately equal to the concentration of total lipid, that is, the concentration of free lipid is in great excess over the concentration of bound drug. Provided this concentration is satisfied, K may be determined from the inverse of the slope of a double reciprocal plot according to (Burke and Tritton, Biochemistry 24:1776, 1985). In such a plot, 1/bound fraction of the total camptothecin drug is plotted vs. 1/[lipid], with a y-intercept value of 1.
FIG. 6A is the double-reciprocal plot for the associations of CMC, camptothecin, camptothecin carboylate sodium salt and topotecan with DMPC at 37° C.
The stabilization of camptothecin drugs was determined using different lipids. Three types of lipids (and thus 3 types of membranes) were examined: fluid-phase and electroneutral L-α-dimyristoylphosphatidylcholine (DMPC); fluid-phase and negatively-charged L-α-dimyristoylphosphatidylglycerol (DMPG), and solid-phase and electroneutral L-α-distearoylphosphatidylcholine (DSPC). While DMPC and DMPG have identical chain length, the charge on their head groups differ. DMPC and DSPC have identical head groups, but DMPC has acyl chains having 14 carbons per chain, which are four carbons shorter than the DSPC, which has 18 carbons per chain. This difference of 4-carbon chain length results in DMPC being fluid-phase at 37° C. while DSPC is solid-phase. The 7 camptothecin drugs listed in Table III were combined with liposomes containing the above lipids.
FIGS. 4A and 4B show the extent of camptothecin drug binding to liposomes as a function of lipid concentration for DMPC and DMPG liposomes. DMPC liposomes were made as in Example 1, at lipid concentrations from 0 to 0.29M, using CMC, 10-hydroxycamptothecin, 10,11-methylenedioxy-camptothecin, topotecan, camptothecin, and camptothecin carboxylate sodium salt, as shown in FIG. 4B. DMPG liposomes were made as in Example 2, at lipid concentrations from 0 to 0.29M, using 9-chloro-10,11-methylenedioxycamptothecin CMC, 10,11-methylenedioxycamptothecin, camptothecin, and topotecan, 9-aminocamptothecin, as shown in FIG. 4A. […]

SMILES: CCC1(O)C(=O)OCc2c1cc1n(c2=O)Cc2cc3c(Cl)c4c(cc3nc2-1)OCO4 (centres unmarked) [9-chloro-10,11-methylenedioxycamptothecin]
- λMAX emission, DMPG [1]: 417 nm
- λMAX emission, PBS [1]: 410 nm
- Relative Fluorescence [1]: 1
- λMAX excitation ([1]; 37° C.): 394 nm
- overall association constant K, DMPC [2]: 400 M⁻¹
- bound drug level, DMPC [2]: 99%
- binding affinity for liposomes (ranking) [2]: highest binding affinity for each type of liposome

SMILES: CCC1(O)C(=O)OCc2c1cc1n(c2=O)Cc2cc3cc4c(cc3nc2-1)OCO4 (centres unmarked) [10,11-methylenedioxycamptothecin]
- λMAX emission, DMPC [1]: 408 nm
- λMAX emission, DMPG [1]: 408 nm
- λMAX emission, PBS [1]: 410 nm
- Relative Fluorescence [1]: 1
- λMAX excitation ([1]; 37° C.): 395 nm
- binding affinity for liposomes (ranking) [2]: intermediate binding affinities

SMILES: CCC1(O)C(=O)OCc2c1cc1n(c2=O)Cc2cc3cc(O)ccc3nc2-1 (centres unmarked) [10-hydroxycamptothecin]
- λMAX emission, DMPC [1]: 558 nm
- λMAX emission, DMPG [1]: 550 nm
- λMAX emission, PBS [1]: 561 nm
- Relative Fluorescence [1]: 0.5
- λMAX excitation ([1]; 37° C.): 392 nm
- overall association constant K, DMPC [2]: 75 M⁻¹

SMILES: CC[C@@]1(O)C(=O)OCc2c1cc1n(c2=O)Cc2cc3ccccc3nc2-1 [camptothecin]
- λMAX emission, DMPC [1]: 433 nm
- spectral shift on association with DMPC liposomes ([1]; DMPC, relative to free drug): about 5 nm
- λMAX emission, DMPG [1]: 422 nm
- λMAX emission, PBS [1]: 438 nm
- Relative Fluorescence [1]: 1
- λMAX excitation ([1]; 37° C.): 366 nm
- blue shift of emission λmax on binding DMPG liposomes ([1]; relative to free camptothecin, 1×10^-6 M, 37° C.): about 16 nm
- bound drug level, DMPC [2]: 97%
- binding affinity for liposomes (ranking) [2]: intermediate binding affinities

SMILES: CC[C@@]1(O)C(=O)OCc2c1cc1n(c2=O)Cc2cc3c(CN(C)C)c(O)ccc3nc2-1 [topotecan]
- shifting in the emission spectrum with DMPG liposomes ([1]; 1 μM, DMPG liposomes): Only a slight shifting in the emission spectrum
- λMAX emission, DMPC [1]: 538 nm
- λMAX emission, DMPG [1]: 533 nm
- λMAX emission, PBS [1]: 537 nm
- Relative Fluorescence [1]: 1
- λMAX excitation ([1]; 37° C.): 410 nm
- reduced propensity to bind electroneutral liposome membranes relative to CMC ([2]; DMPC): 40 -fold
- overall association constant K, DMPC [2]: 10 M⁻¹
- bound drug level, DMPC [2]: 74%
- binding affinity for liposomes (ranking) [2]: lowest binding affinity for liposomes
